Experiment: xn = mol fraction of the nth substance listed
Details: 100 kPa

With `O=C[C@H](O)[C@@H](O)[C@H](O)[C@H](O)CO` + CC(=O)[O-].CC[n+]1ccn(C)c1 as the compound, how does the viscosity (282.5 K, x1 = 0.0474) read?
The viscosity was 756 mPa·s.

What about the viscosity (282.5 K, x1 = 0.095) of the same compound?
Its viscosity is 2299 mPa·s.

What about the viscosity (283.3 K, x1 = 0.1429) of the same compound?
The viscosity was 7397 mPa·s.

What about the viscosity (292.4 K, x1 = 0.0095) of the same compound?
Its viscosity is 185 mPa·s.

What about the viscosity (292.4 K, x1 = 0.0284) of the same compound?
The viscosity was 245 mPa·s.

And the viscosity (292.4 K, x1 = 0.0474)?
Its viscosity is 339 mPa·s.

And the viscosity (292.4 K, x1 = 0.095)?
The viscosity was 870 mPa·s.

What about the viscosity (293.3 K, x1 = 0.1429) of the same compound?
The viscosity was 2397 mPa·s.

What about the viscosity (302.1 K, x1 = 0.1429) of the same compound?
Its viscosity is 921 mPa·s.

What about the viscosity (303 K, x1 = 0.0095) of the same compound?
Its viscosity is 100 mPa·s.

And the viscosity (303 K, x1 = 0.0284)?
Its viscosity is 123 mPa·s.

And the viscosity (303 K, x1 = 0.0474)?
The viscosity was 165 mPa·s.

What about the viscosity (303 K, x1 = 0.095) of the same compound?
Its viscosity is 380 mPa·s.

And the viscosity (312.5 K, x1 = 0.0095)?
Its viscosity is 61 mPa·s.

And the viscosity (312.5 K, x1 = 0.0284)?
Its viscosity is 73 mPa·s.

And the viscosity (312.5 K, x1 = 0.0474)?
Its viscosity is 97 mPa·s.

And the viscosity (312.5 K, x1 = 0.095)?
The viscosity was 193 mPa·s.

And the viscosity (322.6 K, x1 = 0.0095)?
The viscosity was 38 mPa·s.

And the viscosity (322.6 K, x1 = 0.0284)?
Its viscosity is 45 mPa·s.

And the viscosity (322.6 K, x1 = 0.0474)?
The viscosity was 58 mPa·s.

And the viscosity (322.6 K, x1 = 0.095)?
Its viscosity is 111 mPa·s.

What about the viscosity (322.6 K, x1 = 0.1429) of the same compound?
The viscosity was 207 mPa·s.

And the viscosity (332.2 K, x1 = 0.0095)?
Its viscosity is 28 mPa·s.

What about the viscosity (332.2 K, x1 = 0.0284) of the same compound?
Its viscosity is 32 mPa·s.

And the viscosity (332.2 K, x1 = 0.0474)?
Its viscosity is 39 mPa·s.

What about the viscosity (332.2 K, x1 = 0.095) of the same compound?
Its viscosity is 68 mPa·s.

And the viscosity (341.3 K, x1 = 0.0284)?
Its viscosity is 23 mPa·s.

And the viscosity (341.3 K, x1 = 0.095)?
Its viscosity is 47 mPa·s.

What about the viscosity (342.5 K, x1 = 0.0095) of the same compound?
The viscosity was 20 mPa·s.

What about the viscosity (342.5 K, x1 = 0.0474) of the same compound?
The viscosity was 29 mPa·s.

And the viscosity (342.5 K, x1 = 0.1429)?
The viscosity was 77 mPa·s.

What about the viscosity (352.1 K, x1 = 0.0095) of the same compound?
The viscosity was 15 mPa·s.

And the viscosity (352.1 K, x1 = 0.0284)?
Its viscosity is 18 mPa·s.

What about the viscosity (352.1 K, x1 = 0.0474) of the same compound?
The viscosity was 21 mPa·s.

What about the viscosity (352.1 K, x1 = 0.095) of the same compound?
The viscosity was 34 mPa·s.

And the viscosity (352.1 K, x1 = 0.1429)?
Its viscosity is 53 mPa·s.

And the viscosity (362.3 K, x1 = 0.0095)?
Its viscosity is 13 mPa·s.

What about the viscosity (362.3 K, x1 = 0.0284) of the same compound?
The viscosity was 14 mPa·s.

What about the viscosity (362.3 K, x1 = 0.0474) of the same compound?
Its viscosity is 16 mPa·s.

And the viscosity (362.3 K, x1 = 0.095)?
The viscosity was 24 mPa·s.

And the viscosity (362.3 K, x1 = 0.1429)?
The viscosity was 38 mPa·s.

And the viscosity (371.7 K, x1 = 0.0095)?
Its viscosity is 11 mPa·s.

And the viscosity (371.7 K, x1 = 0.0284)?
Its viscosity is 12 mPa·s.

And the viscosity (371.7 K, x1 = 0.0474)?
Its viscosity is 13 mPa·s.

What about the viscosity (371.7 K, x1 = 0.1429) of the same compound?
The viscosity was 28 mPa·s.

For `OC[C@H]1O[C@@H](O[C@H]2[C@H](O)[C@@H](O)C(O)O[C@@H]2CO)[C@H](O)[C@@H](O)[C@@H]1O` (stereo partly specified) + CC(=O)[O-].CC[n+]1ccn(C)c1, which viscosity (282.5 K, x1 = 0.005) is on record?
The viscosity was 407 mPa·s.

And the viscosity (282.5 K, x1 = 0.0151)?
The viscosity was 517 mPa·s.

What about the viscosity (282.5 K, x1 = 0.0255) of the same compound?
Its viscosity is 756 mPa·s.

And the viscosity (282.5 K, x1 = 0.0524)?
Its viscosity is 2299 mPa·s.

And the viscosity (283.3 K, x1 = 0.0807)?
The viscosity was 7397 mPa·s.

And the viscosity (292.4 K, x1 = 0.005)?
The viscosity was 185 mPa·s.

What about the viscosity (292.4 K, x1 = 0.0151) of the same compound?
Its viscosity is 245 mPa·s.

What about the viscosity (292.4 K, x1 = 0.0524) of the same compound?
Its viscosity is 870 mPa·s.

And the viscosity (293.3 K, x1 = 0.0807)?
Its viscosity is 2397 mPa·s.

And the viscosity (303 K, x1 = 0.005)?
The viscosity was 100 mPa·s.

What about the viscosity (303 K, x1 = 0.0151) of the same compound?
Its viscosity is 123 mPa·s.

What about the viscosity (303 K, x1 = 0.0255) of the same compound?
Its viscosity is 165 mPa·s.

And the viscosity (303 K, x1 = 0.0524)?
Its viscosity is 380 mPa·s.

What about the viscosity (312.5 K, x1 = 0.0255) of the same compound?
The viscosity was 97 mPa·s.

And the viscosity (312.5 K, x1 = 0.0524)?
The viscosity was 193 mPa·s.

And the viscosity (312.5 K, x1 = 0.0807)?
Its viscosity is 419 mPa·s.

What about the viscosity (322.6 K, x1 = 0.005) of the same compound?
Its viscosity is 38 mPa·s.

What about the viscosity (322.6 K, x1 = 0.0255) of the same compound?
Its viscosity is 58 mPa·s.

And the viscosity (322.6 K, x1 = 0.0524)?
The viscosity was 111 mPa·s.

And the viscosity (332.2 K, x1 = 0.005)?
The viscosity was 28 mPa·s.

And the viscosity (332.2 K, x1 = 0.0151)?
The viscosity was 32 mPa·s.

What about the viscosity (332.2 K, x1 = 0.0524) of the same compound?
Its viscosity is 68 mPa·s.

And the viscosity (341.3 K, x1 = 0.0151)?
Its viscosity is 23 mPa·s.

What about the viscosity (341.3 K, x1 = 0.0524) of the same compound?
The viscosity was 47 mPa·s.

And the viscosity (342.5 K, x1 = 0.0255)?
Its viscosity is 29 mPa·s.

What about the viscosity (342.5 K, x1 = 0.0807) of the same compound?
Its viscosity is 77 mPa·s.

What about the viscosity (352.1 K, x1 = 0.005) of the same compound?
Its viscosity is 15 mPa·s.

What about the viscosity (352.1 K, x1 = 0.0151) of the same compound?
The viscosity was 18 mPa·s.

And the viscosity (352.1 K, x1 = 0.0255)?
Its viscosity is 21 mPa·s.

And the viscosity (352.1 K, x1 = 0.0524)?
The viscosity was 34 mPa·s.

What about the viscosity (352.1 K, x1 = 0.0807) of the same compound?
The viscosity was 53 mPa·s.

What about the viscosity (362.3 K, x1 = 0.005) of the same compound?
The viscosity was 13 mPa·s.

And the viscosity (362.3 K, x1 = 0.0151)?
Its viscosity is 14 mPa·s.

What about the viscosity (362.3 K, x1 = 0.0255) of the same compound?
Its viscosity is 16 mPa·s.

What about the viscosity (362.3 K, x1 = 0.0524) of the same compound?
Its viscosity is 24 mPa·s.

And the viscosity (362.3 K, x1 = 0.0807)?
The viscosity was 38 mPa·s.

And the viscosity (371.7 K, x1 = 0.005)?
The viscosity was 11 mPa·s.

What about the viscosity (371.7 K, x1 = 0.0151) of the same compound?
The viscosity was 12 mPa·s.

What about the viscosity (371.7 K, x1 = 0.0255) of the same compound?
Its viscosity is 13 mPa·s.

And the viscosity (371.7 K, x1 = 0.0807)?
The viscosity was 28 mPa·s.

What about the viscosity (373.1 K, x1 = 0.0524) of the same compound?
The viscosity was 19 mPa·s.
